Results from patent US20230263807A1, “TREPROSTINIL ILOPROST COMBINATION THERAPY” (United Therapeutics Corporation, priority 2022, published 2023).
Like-named read-outs stand apart in the source and are kept apart here.

Protocol: The solubility of iloprost at 100 μg/mL was evaluated at five different pH levels by visual inspection and HPLC-UV analysis. A stock solution of Iloprost was prepared in ethanol at 1 mg/mL. The stock solution was diluted 10-fold in each buffer and mixed well. The buffered solutions were visually inspected for any precipitation. The buffered solutions were filtered with 0.45 μm nylon filters prior to analysis by HPLC.

With `CC#CCC(C)[C@H](O)/C=C/[C@@H]1[C@H]2C/C(=C/CCCC(=O)O)C[C@H]2C[C@H]1O` (stereo partly shown) [Iloprost] the “Final pH” value (100 μg/mL Iloprost in 10 mM Acetate, initial pH 5.00) was 5.08, the “Final pH” value (100 μg/mL Iloprost in 10 mM Citrate, initial pH 2.89) was 2.99 and the “Final pH” value (100 μg/mL Iloprost in 10 mM Phosphate, initial pH 6.23) was 6.36. The “Final pH” value (100 μg/mL Iloprost in 10 mM Phosphate, initial pH 7.27) was 7.42, the “Final pH” value (100 μg/mL Iloprost in 10 mM Phosphate, initial pH 8.60) was 8.59 and the “solubility by chromatographic analysis” value (pH 2.89) was “potential solubility issues below pH 6”. For the same compound, the visual solubility (pH 2.89) was “No visual solubility issues”.
